What was measured:
mANO1 [1] = biological target: T1, mANO1 (Mus musculus, UniProt Q8BHY3, S527P); test: Inhibition of endothelin-1 evoked currents in mANO1-ETAR/HEK cells by Cl− channel and CaCC blockers; type: cell-based; design: expressed in transfected cells; conditions: ANO1/ETAR-HEK cells; blockers 10 μM (mefloquine 5 μM) applied 5 min before second 50 nM endothelin-1
T1 sequence (Q8BHY3 1-960 S527P): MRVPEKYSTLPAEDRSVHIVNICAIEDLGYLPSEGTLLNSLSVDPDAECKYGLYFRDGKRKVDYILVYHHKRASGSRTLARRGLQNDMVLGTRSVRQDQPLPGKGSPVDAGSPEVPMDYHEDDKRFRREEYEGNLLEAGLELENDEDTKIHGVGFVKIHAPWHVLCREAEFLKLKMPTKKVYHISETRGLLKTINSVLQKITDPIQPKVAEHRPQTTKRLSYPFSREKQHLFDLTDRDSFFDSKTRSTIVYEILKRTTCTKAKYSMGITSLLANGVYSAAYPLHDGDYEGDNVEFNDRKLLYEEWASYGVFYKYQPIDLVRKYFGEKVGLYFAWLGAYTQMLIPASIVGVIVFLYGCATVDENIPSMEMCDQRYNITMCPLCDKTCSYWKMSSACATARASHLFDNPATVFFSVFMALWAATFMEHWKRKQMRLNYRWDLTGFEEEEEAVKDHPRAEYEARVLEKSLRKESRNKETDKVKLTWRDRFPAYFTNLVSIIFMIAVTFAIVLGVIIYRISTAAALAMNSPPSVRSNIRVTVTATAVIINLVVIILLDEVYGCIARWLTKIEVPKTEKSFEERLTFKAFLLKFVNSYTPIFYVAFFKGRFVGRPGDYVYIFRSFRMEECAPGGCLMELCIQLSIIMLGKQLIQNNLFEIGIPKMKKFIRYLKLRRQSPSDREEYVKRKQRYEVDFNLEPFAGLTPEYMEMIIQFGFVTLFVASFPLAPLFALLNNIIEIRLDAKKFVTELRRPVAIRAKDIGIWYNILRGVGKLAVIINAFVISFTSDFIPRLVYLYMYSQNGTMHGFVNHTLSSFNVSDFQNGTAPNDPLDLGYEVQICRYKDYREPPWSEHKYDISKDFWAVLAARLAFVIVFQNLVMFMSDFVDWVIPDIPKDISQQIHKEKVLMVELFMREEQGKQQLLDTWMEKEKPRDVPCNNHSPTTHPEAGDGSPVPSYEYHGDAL
Protocol: B. Inhibition of endothelin-1 evoked currents in mANO1-ETAR/HEK cells by Cl^− channel blockers as well as classical inhibitors (each, n=5) of native CaCCs. Chemicals in 10 μM (except mefloquine, 5 μM) were applied 5 min before the second application of endothelin-1. Control (n=12). **p<0.001 compared to control (ANOVA, Duncan's post hoc test). (Error bars=Mean±S.E.M)
(§1) To form gigaseals, individual cell surfaces were touched with a ˜3 Mohm Sylgard-coated glass pipette with gentle suction, and the junction potential was then adjusted to 0 mV. The membrane in contact with the pipette was then ruptured by suction to form a whole cell. The pipette solution contained 140 mM NMDG-Cl, 2 mM MgCl2, 10 mM HEPES, 2 mM ATP, and 0.3 mM GTP adjusted to pH 7.2, and the bath solution contained 140 mM NMDG-Cl, 2 mM MgCl2 and 10 mM HEPES (pH 7.2). For ion selectivity experiments, 140 mM NMDG-Cl was replaced with equimolar NaCl, NaL NaBr, NaNO3, NaF, or Na-gluconate in the bath solution. To determine current-voltage relationships, voltage ramps from −80 or −100 mV to +80 or +100 mV were delivered for 350 ms, or voltage-pulses from −100 mV to +100 mV were delivered for 400 ms to whole cells. When mANO1 was activated by 300 nM intracellular Ca^2+, voltage-pulses of 2500 ms were delivered. Whole-cell currents were amplified using an Axopatch 200B amplifier (Molecular Device, Sunnyvale, Calif.) and stored in a personal computer after digitization by a Digidata 1440 (Molecular Device). For single-channel current recordings, cell-attached or inside-out patches were formed from gigaseals. The pipette and control bath solution contained 140 mM NMDG-Cl, 2 mM MgCl2 and 10 mM HEPES (pH 7.2). […] To create amplitude histograms, pClamp software (version 6.0, Molecular Device) was used to analyze open and closed single-channel current events. The half-amplitude algorithm was used to determine an open event. The minimum duration of an open event was set at 0.1 ms.
(§2) LPA-induced ANO1 currents were blocked by Cl^− channel blockers. The Cl^− channel blockers were applied 10˜20 min before the LPA application. […] This blockade of agonist-induced ANO1 currents by DIDS, niflumic acid, or NPPB were also observed in mammalian cells transfected with mANO1.
In addition, modifiers of various enzymes or transporters such as fluoxetine (serotonin reuptake inhibitor), tamoxifen (estrogen receptor modulator), n-phenyl-anthranilic acid (NPA, cyclooxygenase inhibitor), and mefloquine (antimalarial drug) are known to block native CaCCs (Eggermont, J., Proc Am Thorac Soc. 1, 22-7 (2004); Nilius, B. et al. J Physiol. 498, 381-96 (1997); Nilius, B. & Droogmans, G., Acta Physiol Scand 177, 119-47 (2003)). If ANO1 is a CaCC, mANO1 should be inhibited by these CaCC blockers.

mANO1 [2] = biological target: T1, mANO1; test: Two-electrode voltage clamp currents in Xenopus oocytes injected with mANO1 complementary RNA; type: cell-based; design: expressed in transfected cells; host or cells: Xenopus laevis oocytes (cRNA injection); conditions: for block of LPA-induced ANO1 currents: DIDS 300 μM, niflumic acid 200 μM, NPPB 200 μM applied 10˜20 min before LPA; for block of LPA current responses by pretreatment: mANO1 oocytes, 1 μM thapsigargin for 3 hours or 10 μM U-73122 for 20 min before 1 μM LPA
Protocol: pSDTF-mANO1 obtained in Reference Example 1 was linearized using BamHI. Complementary RNA was transcribed with SP6 RNA polymerase (mMESSAGE mMACHINE® SP6 Kit, Ambion, Austin, Tex.). After being defolliculated with collagenase (Type IA, Sigma), Xenopus laevis oocytes were injected with 50 ng of the complementary RNAs of mANO1 in 50 nl of diethylpyrocarbonate-treated water. Two to five days after the injection, whole cell currents were recorded using the two-electrode voltage clamp technique. The bath solution contained 96 mM NaCl, 1 mM MgCl2, 5 mM HEPES, 2 mM KCl and 1.8 mM CaCl2 at pH 7.5 and was perfused at 2 ml/min. Experiments were performed at room temperature.
Xenopus oocytes provide a recognized model for endogenous CaCC studies because they express endogenous CaCCs that are required for ‘fertilization depolarization’ (Hartzell, H. C. et al., Mol Pharmacol 51, 683-92 (1997)). Furthermore, the biophysical and pharmacological properties of Xenopus CaCCs are similar to those of mammalian CaCCs (Machaca, K. et al., Calcium-Activated Chloride Channels (ed. Fuller, C. M.) (Academic Press, Amsterdam, 2002)). Accordingly, the present inventors expressed mANO1 in Xenopus oocytes and tested its activation by receptor stimulation using 1 μM LPA (lysophosphatidic acid). CaCCs in Xenopus are known to be activated by LPA (Guo, Z. et al., Proc Natl Acad Sci USA. 93, 14367-72 (1996); and Kim, M. J. et al., Biochem Pharmacol. 59, 241-7 (2000)). […] Moreover, LPA-induced ANO1 currents were outwardly-rectifying, like those of native CaCCs in Xenopus oocytes (Machaca, K. et al., supra) (FIG. 4C). The reversal potential was 37.7±1.05 mV (n=5), which is close to the equilibrium potential of Cl^− in Xenopus oocytes (Weber, W., Biochim Biophys Acta 1421, 213-33 (1999)).
Indeed, LPA (1 μM) applied to oocytes expressing mANO1 induced a large inward current.
Further, pretreatment of 1 μM thapsigargin blocked the IP3-induced current in a mANO1-expressing oocyte (FIGS. 10C and 10D).
as §2

mANO1 [3] = test: Whole-cell current response to GPCR stimulation in HEK 293T cells co-transfected with mANO1 and a GPCR; type: cell-based, mouse; conditions: mANO1 co-expressed in HEK cells with M1R, H1R or AT1R; carbachol 1 μM, histamine 100 μM, angiotensin II 1 μM
Protocol: HEK 293T cells were transfected with pEGFP-N1 (control) (1.0 μg) or pEGFP-N-1-mANO1 (0.8˜1.0 μg) and/or any one of the GPCR cDNAs (1.0 μg) obtained in Reference Example 2, using a FuGENE® HD transfection reagent (Roche Diagnostics, Penzberg, Germany). Transfected cells were maintained in DMEM supplemented with heat inactivated 10% fetal bovine serum (GIBCO BRL, Rockville, Md.) and penicillin-streptomycin at 37 in a 5% CO2 humidified atmosphere. One or two days after transfection, transfected cells were used for biochemical and electrophysiological experiments.
as §1
Under physiological conditions CaCCs are known to be activated by GPCR stimulation. Endothelin-1 is a powerful vasoconstrictor that depolarizes vascular smooth muscle by activating CaCCs (Klockner, U. & Isenberg, G., Pflugers Arch. 418, 168-75 (1991); and Salter, K. J. & Kozlowski, R. Z., J Pharmacol Exp Ther. 279, 1053-62 (1996)). Thus, mANO1 and endothelin receptor subtype A (ETAR) were transfected into HEK 293T cells, along with GFP for visual identification of transfected cells, in accordance with the method of Reference Example 5. Whole cells were used to test the current response of mANO1 to ETAR stimulation. Pipette and bath solutions contained 140 mM N-methyl D-glucamine (NMDG)-Cl, which permitted Cl^− to be used as the main charge carrier. The pipette solution was Ca^2+ free and contained no EGTA. […] In contrast, endothelin-1 evoked currents were minimal in HEK cells transfected with ETAR or control (GFP-transfected only) cells. When mANO1 was transfected alone, 50 nM endothelin-1 evoked appreciable currents; presumably because of the presence of endogenous endothelin receptors in HEK cells.

Q: Which results are given for `O=S(=O)(O)c1cc(N=C=S)ccc1C=Cc1ccc(N=C=S)cc1S(=O)(=O)O` [DIDS, 4,4′-diisothiocyanato-stilbene-2,2′-disulfonic acid]?
A: inhibition of response to second application of endothelin-1 (endothelin-1 induced currents) (mANO1 [1]): markedly inhibited; block of LPA-induced ANO1 currents (mANO1 [2]; Xenopus oocytes): significantly blocked

Q: For `O=P(O)(O)O[C@@H]1[C@H](O)[C@H](O)[C@@H](OP(=O)(O)O)[C@H](OP(=O)(O)O)[C@H]1O` [IP3, inositol 1,4,5,-triphosphate], which “inward currents evoked by IP3 micro-injection” value (mANO1 [2]; 2 mM IP3 in 50 nl into oocytes expressing ANO1) is on record?
A: Its value is “evoked robust inward currents”.

Q: `O=C(O)c1cc([N+](=O)[O-])ccc1NCCCc1ccccc1` [NPPB, 5-nitro-2-(3-phenyl-propylamino)-benzoate] was tested. Which “inhibition of response to second application of endothelin-1 (endothelin-1 induced currents)” value (from here on “inhibition of response”) (mANO1 [1]) did it give?
A: The value was “markedly inhibited”.

Q: What about the “block of LPA-induced ANO1 currents” value (mANO1 [2]; Xenopus oocytes) of the same compound?
A: Its value is “significantly blocked”.

Q: For `COc1ccc2c(c1)CC[C@@H]1[C@@H]2CC[C@]2(C)[C@@H](NCCCCCCN3C(=O)C=CC3=O)CC[C@@H]12` [U-73122], which “block of LPA current responses by pretreatment” value (mANO1 [2]) is on record?
A: The value was “completely blocked”.

Q: With `C[N+](C)(C)CCOC(N)=O` [carbachol] as the compound, how does the “current responses to GPCR ligands” value (mANO1 [3]) read?
A: Its value is “robust current responses”.

Q: For `CNCCC(Oc1ccc(C(F)(F)F)cc1)c1ccccc1` (stereo not drawn) [fluoxetine], which “inhibition of response” value (mANO1 [1]) is on record?
A: The value was “markedly inhibited”.

Q: `NCCc1c[nH]cn1` [histamine] was tested. Which “current responses to GPCR ligands” value (mANO1 [3]) did it give?
A: The value was “robust current responses”.

Q: How did the “inhibition of response” value (mANO1 [1]) turn out when `OC(c1cc(C(F)(F)F)nc2c(C(F)(F)F)cccc12)C1CCCCN1` (stereo not drawn) [mefloquine] was run?
A: The value was “markedly inhibited”.

Q: Which “inhibition of response” value (mANO1 [1]) does the source give for `O=C(O)c1ccccc1Nc1ccccc1` [n-phenyl-anthranilic acid] here?
A: Its value is “markedly inhibited”.

Q: What does the source list for `O=C(O)c1cccnc1Nc1cccc(C(F)(F)F)c1` [niflumic acid]?
A: inhibition of response to second application of endothelin-1 (endothelin-1 induced currents) (mANO1 [1]): markedly inhibited; block of LPA-induced ANO1 currents (mANO1 [2]; Xenopus oocytes): significantly blocked

Q: How did the “inhibition of response” value (mANO1 [1]) turn out when `CC/C(=C(\c1ccccc1)c1ccc(OCCN(C)C)cc1)c1ccccc1` [tamoxifen] was run?
A: The value was “markedly inhibited”.

Q: How did the “block of LPA current responses by pretreatment” value (mANO1 [2]) turn out when `C/C=C(/C)C(=O)O[C@H]1C(C)=C2[C@H]([C@@H]1OC(=O)CCCCCCC)[C@@](C)(OC(C)=O)C[C@H](OC(=O)CCC)[C@@]1(O)[C@H]2OC(=O)[C@@]1(C)O` [thapsigargin] was run?
A: The value was “completely blocked”.

Q: And the “block of IP3-induced current” value (mANO1 [2]; pretreatment of 1 μM thapsigargin, mANO1-expressing oocyte)?
A: The value was “blocked”.

Q: For “angiotensin II (DRVYIHPF) [ligand of angiotensin receptor subtype 1 (AT1R)]”, which “current responses to GPCR ligands” value (mANO1 [3]) is on record?
A: Its value is “robust current responses”.

Q: For lysophosphatidic acid [LPA], which “current response to LPA in mANO1 RNA-injected vs water-injected oocytes” value (mANO1 [2]; 1 μM LPA, Xenopus oocytes, −60 mV) is on record?
A: Its value is “increased about six fold”.
